# Literature values, collected in patent US10596038B2, “Corneal denervation for treatment of ocular pain” (Journey1, Inc., priority 2009, dated 2020).
# Conditions: after 24 hours
structure (smiles),measurement,value
COc1cc(CNC(=O)CCCC/C=C/C(C)C)ccc1O [Capsaicin],detectability in the blood,undetectable
